{
  "source": "patent EP0601520A1",
  "about": "“Trifluorothymidine derivatives, process for producing the same and anti-cancer agent containing the same” (MITSUI TOATSU CHEMICALS, Inc., priority 1992, dated 1994)",
  "key": {"[1]": {"experiment": "Bodyweight change of the tumor-carrying mice in the anti-tumor activity test", "type": "in vivo, CDF₁ mice", "text": "(§1) The compound obtained in Examples 1, 4, 9 or 11 was uniformly suspended in 0.5% aqueous methylcellulose solution. The compound obtained in Example 14 was uniformly suspended in 0.5% aqueous methylcellulose solution containing 0.1% TWEEN 80.\n(§2) For the compounds obtained in Examples 1, 4, 9 and 11, female CDF₁ mice of 7 weeks old were used. For the compound obtained in Example 14, female CDF₁ mice of 6 weeks old were used. Each group consisted of 5 or 6 animals.\n(§3) To the right abdomen of each mouse, 2 x 10⁶ tumor cells were subcutaneously transplanted. On the next day (day 1), the mice were randomly grouped and the suspension was compulsively administered to the mice by using an oral sound for successive 7 days (day 1 - day 7)."}, "[2]": {"test_system": "Meth A fibrosarcoma", "experiment": "Anti-tumor activity, subcutaneously transplanted Meth A fibrosarcoma in mice, oral administration", "type": "in vivo, CDF₁ mice", "conditions": "tumors weighed on day 14", "text": "as §1, §2\nAs the tumor, Meth A fibrosarcoma was used.\nas §3\nOn day 14, the tumors were removed and weighed. The tumor growth ratio (%) was calculated according to the following equation: Tumor Growth Ratio (%) = T/C x 100 [formula] wherein T means the average weight of tumor of the treated group and C means the average weight of tumor of the control group. The results about the compounds obtained in Examples 1, 4, 9 and 11 are shown in Table 2, and the results about the compound obtained in Example 14 are shown in Table 3. In Table 2, \"HCFU\" means 1-hexyl carbamoyl-5-fluorouracil known as \"Carmofur\"."}, "[3]": {"conditions": "dose 100.0 mg/kg, Table 2 experiment, female CDF₁ mice"}},
  "data": [
    {"smiles": "CCCCCCNC(=O)n1cc(F)c(=O)[nH]c1=O", "note": "[HCFU, 1-hexyl carbamoyl-5-fluorouracil, reference compound]", "values": [
      {"measurement": "Bodyweight Change", "setting": "[1]; [3]", "value": -2.0, "unit": "g"},
      {"measurement": "Tumor Weight Ratio (T/C:%)", "setting": "[2]; [3]", "value": 18.0, "unit": "%"}
    ]},
    {"smiles": "C#CCO[C@H]1C[C@H](n2cc(C(F)(F)F)c(=O)[nH]c2=O)O[C@@H]1COC(=S)c1ccc(Cl)cc1", "note": "[Example 4, 3'-O-propargyl-5'-O-(4-chlorothiobenzoyl)-α,α,α-trifluorothymidine]", "values": [
      {"measurement": "Bodyweight Change", "setting": "[1]; dose 14.6 mg/kg oral, day 1 - day 7, female CDF₁ mice 7 weeks old, 0.5% methylcellulose suspension", "value": -0.8, "unit": "g"},
      {"measurement": "Bodyweight Change", "setting": "[1]; dose 58.5 mg/kg oral, day 1 - day 7, female CDF₁ mice 7 weeks old, 0.5% methylcellulose suspension", "value": -3.8, "unit": "g"},
      {"measurement": "Tumor Weight Ratio (T/C:%)", "setting": "[2]; dose 14.6 mg/kg oral, day 1 - day 7, female CDF₁ mice 7 weeks old", "value": 23.3, "unit": "%"},
      {"measurement": "Tumor Weight Ratio (T/C:%)", "setting": "[2]; dose 58.5 mg/kg oral, day 1 - day 7, female CDF₁ mice 7 weeks old", "value": 4.8, "unit": "%"}
    ]},
    {"smiles": "C#CCO[C@H]1C[C@H](n2cc(C(F)(F)F)c(=O)[nH]c2=O)O[C@@H]1COC(=S)c1cccs1", "note": "[Example 11, 3'-O-propargyl-5'-O-(2-thiophenecarbothionyl)-α,α,α-trifluorothymidine]", "values": [
      {"measurement": "Bodyweight Change", "setting": "[1]; dose 13.8 mg/kg oral, day 1 - day 7, female CDF₁ mice 7 weeks old, 0.5% methylcellulose suspension", "value": -0.7, "unit": "g"},
      {"measurement": "Bodyweight Change", "setting": "[1]; dose 55.1 mg/kg oral, day 1 - day 7, female CDF₁ mice 7 weeks old, 0.5% methylcellulose suspension", "value": -4.4, "unit": "g"},
      {"measurement": "Tumor Weight Ratio (T/C:%)", "setting": "[2]; dose 13.8 mg/kg oral, day 1 - day 7, female CDF₁ mice 7 weeks old", "value": 27.6, "unit": "%"},
      {"measurement": "Tumor Weight Ratio (T/C:%)", "setting": "[2]; dose 55.1 mg/kg oral, day 1 - day 7, female CDF₁ mice 7 weeks old", "value": 5.8, "unit": "%"}
    ]},
    {"smiles": "C#CCO[C@H]1C[C@H](n2cc(C(F)(F)F)c(=O)[nH]c2=O)O[C@@H]1COC(=S)c1ccccc1", "note": "[Example 14, 3'-O-propargyl-5'-O-thiobenzoyl-α,α,α-trifluorothymidine]", "values": [
      {"measurement": "Bodyweight Change", "setting": "[1]; dose 13.6 mg/kg oral, day 1 - day 7, female CDF₁ mice 6 weeks old, 0.5% methylcellulose containing 0.1% TWEEN 80", "value": -0.5, "unit": "g"},
      {"measurement": "Bodyweight Change", "setting": "[1]; dose 54.4 mg/kg oral, day 1 - day 7, female CDF₁ mice 6 weeks old, 0.5% methylcellulose containing 0.1% TWEEN 80", "value": -3.7, "unit": "g"},
      {"measurement": "Tumor Weight Ratio (T/C:%)", "setting": "[2]; dose 13.6 mg/kg oral, day 1 - day 7, female CDF₁ mice 6 weeks old", "value": 29.4, "unit": "%"},
      {"measurement": "Tumor Weight Ratio (T/C:%)", "setting": "[2]; dose 54.4 mg/kg oral, day 1 - day 7, female CDF₁ mice 6 weeks old", "value": 7.2, "unit": "%"}
    ]},
    {"smiles": "C#CCO[C@H]1C[C@H](n2cc(C(F)(F)F)c(=O)[nH]c2=O)O[C@@H]1COC(=S)c1ccc(C)cc1", "note": "[Example 1, 3'-O-propargyl-5'-O-(4-methyl-thiobenzoyl)-α,α,α-trifluorothymidine]", "values": [
      {"measurement": "Bodyweight Change", "setting": "[1]; dose 14.0 mg/kg oral, day 1 - day 7, female CDF₁ mice 7 weeks old, 0.5% methylcellulose suspension", "value": -0.4, "unit": "g"},
      {"measurement": "Bodyweight Change", "setting": "[1]; dose 56.1 mg/kg oral, day 1 - day 7, female CDF₁ mice 7 weeks old, 0.5% methylcellulose suspension", "value": -3.2, "unit": "g"},
      {"measurement": "Tumor Weight Ratio (T/C:%)", "setting": "[2]; dose 14.0 mg/kg oral, day 1 - day 7, female CDF₁ mice 7 weeks old", "value": 28.4, "unit": "%"},
      {"measurement": "Tumor Weight Ratio (T/C:%)", "setting": "[2]; dose 56.1 mg/kg oral, day 1 - day 7, female CDF₁ mice 7 weeks old", "value": 7.1, "unit": "%"}
    ]},
    {"smiles": "C#CCO[C@H]1C[C@H](n2cc(C(F)(F)F)c(=O)[nH]c2=O)O[C@@H]1COC(=S)c1ccc(SC)cc1", "note": "[Example 9, 3'-O-propargyl-5'-O-(4-thiomethylthiobenzoyl)-α,α,α-trifluorothymidine]", "values": [
      {"measurement": "Bodyweight Change", "setting": "[1]; dose 15.0 mg/kg oral, day 1 - day 7, female CDF₁ mice 7 weeks old, 0.5% methylcellulose suspension", "value": -0.9, "unit": "g"},
      {"measurement": "Bodyweight Change", "setting": "[1]; dose 60.0 mg/kg oral, day 1 - day 7, female CDF₁ mice 7 weeks old, 0.5% methylcellulose suspension", "value": -4.3, "unit": "g"},
      {"measurement": "Tumor Weight Ratio (T/C:%)", "setting": "[2]; dose 15.0 mg/kg oral, day 1 - day 7, female CDF₁ mice 7 weeks old", "value": 22.5, "unit": "%"},
      {"measurement": "Tumor Weight Ratio (T/C:%)", "setting": "[2]; dose 60.0 mg/kg oral, day 1 - day 7, female CDF₁ mice 7 weeks old", "value": 5.1, "unit": "%"}
    ]}
  ]
}
